Assay results reported in patent publication US12643882B2, “Inhibitors of human respiratory syncytial virus and metapneumovirus” (priority 2022, dated 2026).
Read-outs that look alike come from different tables or passages of the source.

Columns and labels:
RSV-A2-GFP virus = assay: microbe, parasite or virus in culture; format: cell-based, Human Respiratory Syncytial Virus
Outline: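 Assay-ready frozen Calu-1 cells at 20,000 cells/mL were infected with recombinant RSV-A2-GFP (MOI 1.2) in DMEM with 2% FBS. Cells were exposed to 10-point 3-fold compound dilutions for 96 h at 37° C. GFP-positive cells were counted by imaging, with same-well CellTiter-Glo for cytotoxicity, and IC50 and CC50 came from 4-parameter logistic fits.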

hMPV-GFP virus = assay: microbe, parasite or virus in culture; format: cell-based, human metapneumovirus
Outline: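 VERO cells infected with GFP-expressing hMPV at MOI 1.25 were incubated 48 h at 37 °C with compound in 10-point 3-fold dilutions (typically 40,300–2 nM final). GFP-positive cells were counted by imaging. Same-well CellTiter-Glo gave cytotoxicity, and IC50/CC50 came from 4-parameter logistic fits.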

[1] = Calu-1 cells infected with RSV-A2-GFP, 96 hrs, GFP-expressing cells counted, read-out: RSV EC50
[2] = VERO cells infected with hMPV-GFP, 48 hrs, GFP-expressing cells counted, read-out: hMPV EC50
[3] = human respiratory syncytial virus, Calu-1, 96 h, read-out: RSV EC50, Calu-1 cells infected with RSV-A2-GFP, 96 hrs, GFP-expressing cells counted
[4] = human metapneumovirus, Vero, 48 h, read-out: hMPV EC50, VERO cells infected with hMPV-GFP, 48 hrs, GFP-expressing cells counted

Cc1nn(-c2ncccn2)cc1C(=O)N1C[C@@H]2[C@H](C1)[C@H]2Oc1cc(C(C)(C)N)cc(-c2ccc(C(F)(F)F)cc2)n1 [Example 86, ((1R,5S,6s)-6-((4-(2-aminopropan-2-yl)-6-(4-(trifluoromethyl)phenyl)pyridin-2-yl)oxy)-3-azabicyclo[3.1.0]hexan-3-yl)(3-methyl-1-(pyrimidin-2-yl)-1H-pyrazol-4-yl)methanone]
EC50 (RSV-A2-GFP virus; [1]): < 10 nM
EC50 (hMPV-GFP virus; [2]): 10 to 100 nM

Cc1nn(-c2ncccn2)cc1C(=O)N1C[C@@H]2[C@H](C1)[C@H]2Oc1cc(C(C)(C)N)cc(-c2ccc(C(F)(F)F)nc2)n1 [Example 87, ((1R,5S,6s)-6-((4-(2-aminopropan-2-yl)-6′-(trifluoromethyl)-[2,3′-bipyridin]-6-yl)oxy)-3-azabicyclo[3.1.0]hexan-3-yl)(3-methyl-1-(pyrimidin-2-yl)-1H-pyrazol-4-yl)methanone]
EC50 (RSV-A2-GFP virus; [1]): < 10 nM
EC50 (hMPV-GFP virus; [2]): > 100 nM

COc1cc(C(F)(F)F)ccc1-c1cc(C(C)(C)N)cc(O[C@H]2[C@@H]3CN(C(=O)c4cn(-c5ncccn5)nc4C)C[C@@H]32)n1 [Example 88, ((1R,5S,6s)-6-((4-(2-aminopropan-2-yl)-6-(2-methoxy-4-(trifluoromethyl)phenyl)pyridin-2-yl)oxy)-3-azabicyclo[3.1.0]hexan-3-yl)(3-methyl-1-(pyrimidin-2-yl)-1H-pyrazol-4-yl)methanone]
EC50 (RSV-A2-GFP virus; [1]): < 10 nM
EC50 (hMPV-GFP virus; [2]): > 100 nM

Cc1nn(-c2ncccn2)cc1C(=O)N1C[C@@H]2[C@H](C1)[C@H]2Oc1cc(C(C)(C)N)cc(-c2cc3ccccc3[nH]2)n1 [Example 89, ((1R,5S,6s)-6-((4-(2-aminopropan-2-yl)-6-(1H-indol-2-yl)pyridin-2-yl)oxy)-3-azabicyclo[3.1.0]hexan-3-yl)(3-methyl-1-(pyrimidin-2-yl)-1H-pyrazol-4-yl)methanone]
EC50 (RSV-A2-GFP virus; [1]): < 10 nM
EC50 (hMPV-GFP virus; [2]): > 100 nM

Cc1nn(-c2ncccn2)cc1C(=O)N1C[C@@H]2[C@H](C1)[C@H]2Oc1cc(C(C)(C)N)cc(C2=CCC(C)(C)CC2)n1 [Example 90, ((1R,5S,6s)-6-((4-(2-aminopropan-2-yl)-6-(4,4-dimethylcyclohex-1-en-1-yl)pyridin-2-yl)oxy)-3-azabicyclo[3.1.0]hexan-3-yl)(3-methyl-1-(pyrimidin-2-yl)-1H-pyrazol-4-yl)methanone]
EC50 (RSV-A2-GFP virus; [1]): < 10 nM
EC50 (hMPV-GFP virus; [2]): > 100 nM

CC(C)(N)c1cc(O[C@H]2[C@@H]3CN(C(=O)c4cn(-c5ncccn5)nc4C(F)F)C[C@@H]32)nc(-c2ccc(F)c(F)c2)c1 [Example 91, ((1R,5S,6s)-6-((4-(2-aminopropan-2-yl)-6-(3,4-difluorophenyl)pyridin-2-yl)oxy)-3-azabicyclo[3.1.0]hexan-3-yl)(3-(difluoromethyl)-1-(pyrimidin-2-yl)-1H-pyrazol-4-yl)methanone]
EC50 (RSV-A2-GFP virus; [1]): < 10 nM
EC50 (hMPV-GFP virus; [2]): > 100 nM

CC(C)(N)c1cc(O[C@H]2[C@@H]3CN(C(=O)c4cn(-c5ncccn5)nc4C(F)(F)F)C[C@@H]32)nc(-c2ccc(F)c(F)c2)c1 [Example 92, ((1R,5S,6s)-6-((4-(2-aminopropan-2-yl)-6-(3,4-difluorophenyl)pyridin-2-yl)oxy)-3-azabicyclo[3.1.0]hexan-3-yl)(1-(pyrimidin-2-yl)-3-(trifluoromethyl)-1H-pyrazol-4-yl)methanone]
EC50 (RSV-A2-GFP virus; [1]): < 10 nM
EC50 (hMPV-GFP virus; [2]): > 100 nM

CC(C)(N)c1cc(O[C@H]2[C@@H]3CN(C(=O)c4cn(-c5ncccn5)nc4C(F)(F)F)C[C@@H]32)nc(-c2ccc(C(F)(F)F)cc2)c1 [Example 93, ((1R,5S,6s)-6-((4-(2-aminopropan-2-yl)-6-(4-(trifluoromethyl)phenyl)pyridin-2-yl)oxy)-3-azabicyclo[3.1.0]hexan-3-yl)(1-(pyrimidin-2-yl)-3-(trifluoromethyl)-1H-pyrazol-4-yl)methanone]
EC50 (RSV-A2-GFP virus; [1]): < 10 nM
EC50 (hMPV-GFP virus; [2]): > 100 nM

Cc1nn(-c2ncccn2)cc1C(=O)N1C[C@@H]2[C@H](C1)[C@H]2Oc1cc(C(C)(C)N)cc(-n2ncc3c(Cl)cccc32)n1 [Example 94, ((1R,5S,6s)-6-((4-(2-aminopropan-2-yl)-6-(4-chloro-1H-indazol-1-yl)pyridin-2-yl)oxy)-3-azabicyclo[3.1.0]hexan-3-yl)(3-methyl-1-(pyrimidin-2-yl)-1H-pyrazol-4-yl)methanone]
EC50 (RSV-A2-GFP virus; [3]): < 10 nM
EC50 (hMPV-GFP virus; [4]): > 100 nM

CC(C)(N)c1cc(O[C@H]2[C@@H]3CN(C(=O)c4cn(-c5ncccn5)nc4CO)C[C@@H]32)nc(-c2ccc(F)c(F)c2)c1 [Example 95, ((1R,5S,6s)-6-((4-(2-aminopropan-2-yl)-6-(3,4-difluorophenyl)pyridin-2-yl)oxy)-3-azabicyclo[3.1.0]hexan-3-yl)(3-(hydroxymethyl)-1-(pyrimidin-2-yl)-1H-pyrazol-4-yl)methanone]
EC50 (RSV-A2-GFP virus; [3]): < 10 nM
EC50 (hMPV-GFP virus; [4]): > 100 nM

Cc1nc(-c2ncccn2)sc1C(=O)N1C[C@@H]2[C@H](C1)[C@H]2Oc1cc(C(C)(C)N)cc(-c2ccc(F)cc2F)n1 [Example 97, ((1R,5S,6s)-6-((4-(2-aminopropan-2-yl)-6-(2,4-difluorophenyl)pyridin-2-yl)oxy)-3-azabicyclo[3.1.0]hexan-3-yl)(4-methyl-2-(pyrimidin-2-yl)thiazol-5-yl)methanone]
EC50 (RSV-A2-GFP virus; [3]): < 10 nM
EC50 (hMPV-GFP virus; [4]): 10 to 100 nM

Cn1nc(-c2ncccn2)cc1C(=O)N1C[C@@H]2[C@H](C1)[C@H]2Oc1cc(C(C)(C)N)cc(-c2ccc3c(c2)CC3(F)F)n1 [Example 98, ((1R,5S,6s)-6-((4-(2-aminopropan-2-yl)-6-(7,7-difluorobicyclo[4.2.0]octa-1(6),2,4-trien-3-yl)pyridin-2-yl)oxy)-3-azabicyclo[3.1.0]hexan-3-yl)(1-methyl-3-(pyrimidin-2-yl)-1H-pyrazol-5-yl)methanone]
EC50 (RSV-A2-GFP virus; [1]): < 10 nM
EC50 (hMPV-GFP virus; [2]): > 100 nM

Cc1nn(-c2ncccn2)cc1C(=O)N1C[C@@H]2[C@H](C1)[C@H]2Oc1cc(C(C)(C)N)cc(-c2ccc3c(c2)CC3(F)F)n1 [Example 99, ((1R,5S,6s)-6-((4-(2-aminopropan-2-yl)-6-(7,7-difluorobicyclo[4.2.0]octa-1(6),2,4-trien-3-yl)pyridin-2-yl)oxy)-3-azabicyclo[3.1.0]hexan-3-yl)(3-methyl-1-(pyrimidin-2-yl)-1H-pyrazol-4-yl)methanone]
EC50 (RSV-A2-GFP virus; [1]): < 10 nM
EC50 (hMPV-GFP virus; [2]): > 100 nM

Cc1nn(-c2ncccn2)cc1C(=O)N1C[C@@H]2[C@H](C1)[C@H]2Oc1cc(C(C)(C)N)cc(N2CCC(C)(C)CC2)n1 [Example 100, ((1R,5S,6s)-6-((4-(2-aminopropan-2-yl)-6-(4,4-dimethylpiperidin-1-yl)pyridin-2-yl)oxy)-3-azabicyclo[3.1.0]hexan-3-yl)(3-methyl-1-(pyrimidin-2-yl)-1H-pyrazol-4-yl)methanone]
EC50 (RSV-A2-GFP virus; [1]): < 10 nM
EC50 (hMPV-GFP virus; [2]): > 100 nM

CC1(C)CCN(c2cc(C(C)(C)N)cc(O[C@H]3[C@@H]4CN(C(=O)c5cn(-c6ncccn6)nc5C(F)F)C[C@@H]43)n2)CC1 [Example 101, ((1R,5S,6s)-6-((4-(2-aminopropan-2-yl)-6-(4,4-dimethylpiperidin-1-yl)pyridin-2-yl)oxy)-3-azabicyclo[3.1.0]hexan-3-yl)(3-(difluoromethyl)-1-(pyrimidin-2-yl)-1H-pyrazol-4-yl)methanone]
EC50 (RSV-A2-GFP virus; [1]): < 10 nM
EC50 (hMPV-GFP virus; [2]): > 100 nM

Cc1nn(-c2ncccn2)cc1C(=O)N1C[C@@H]2[C@H](C1)[C@H]2Oc1cc(C(C)(C)N)cc(N2CCC(C(F)(F)F)CC2)n1 [Example 102, ((1R,5S,6s)-6-((4-(2-aminopropan-2-yl)-6-(4-(trifluoromethyl)piperidin-1-yl)pyridin-2-yl)oxy)-3-azabicyclo[3.1.0]hexan-3-yl)(3-methyl-1-(pyrimidin-2-yl)-1H-pyrazol-4-yl)methanone]
EC50 (RSV-A2-GFP virus; [1]): < 10 nM
EC50 (hMPV-GFP virus; [2]): > 100 nM

Cc1nc(-c2ncccn2)sc1C(=O)N1C[C@@H]2[C@H](C1)[C@H]2Oc1cc(-c2ccc(F)cc2)nc(C(C)(C)N)c1 [Example 114, ((1R,5S,6s)-6-((2-(2-aminopropan-2-yl)-6-(4-fluorophenyl)pyridin-4-yl)oxy)-3-azabicyclo[3.1.0]hexan-3-yl)(4-methyl-2-(pyrimidin-2-yl)thiazol-5-yl)methanone]
EC50 (RSV-A2-GFP virus; [3]): < 10 nM
EC50 (hMPV-GFP virus; [4]): > 100 nM

Cc1nc(-c2ncccn2)sc1C(=O)N1C[C@@H]2[C@H](C1)[C@H]2Oc1cc(-c2ccc(F)cc2)cc(C(C)(C)N)n1 [Example 115, ((1R,5S,6s)-6-((6-(2-aminopropan-2-yl)-4-(4-fluorophenyl)pyridin-2-yl)oxy)-3-azabicyclo[3.1.0]hexan-3-yl)(4-methyl-2-(pyrimidin-2-yl)thiazol-5-yl)methanone]
EC50 (RSV-A2-GFP virus; [3]): < 10 nM
EC50 (hMPV-GFP virus; [4]): > 100 nM

CCC(N)c1cc(O[C@H]2[C@@H]3CN(C(=O)c4cn(-c5ncccn5)nc4C)C[C@@H]32)nc(-c2ccc(F)cc2)c1 (stereo partly drawn) [Example 117A, ent-((1R,5S,6s)-6-((4-(1-aminopropyl)-6-(4-fluorophenyl)pyridin-2-yl)oxy)-3-azabicyclo[3.1.0]hexan-3-yl)(3-methyl-1-(pyrimidin-2-yl)-1H-pyrazol-4-yl)methanone]
EC50 (RSV-A2-GFP virus; [1]): < 10 nM
EC50 (hMPV-GFP virus; [2]): > 100 nM

Cc1nn(-c2ncccn2)cc1C(=O)N1C[C@@H]2[C@H](C1)[C@H]2Oc1cc(C(N)C(C)C)cc(-c2ccc(F)cc2)n1 (stereo partly drawn) [Example 118A, ent-((1R,5S,6s)-6-((4-(1-amino-2-methylpropyl)-6-(4-fluorophenyl)pyridin-2-yl)oxy)-3-azabicyclo[3.1.0]hexan-3-yl)(3-methyl-1-(pyrimidin-2-yl)-1H-pyrazol-4-yl)methanone]
EC50 (RSV-A2-GFP virus; [1]): < 10 nM
EC50 (hMPV-GFP virus; [2]): > 100 nM
